Laboratory results from ChEMBL document CHEMBL1134759, “Synthesis of a novel C-10 spiro-epoxide of paclitaxel” (Bioorg Med Chem Lett, 2001).

Legend:
A2780 = experiment: In vitro inhibitory activity against Ovarian A2780 cell line was determined.; format: functional, cell-based; settings: Homo sapiens
[1] = target: Tubulin alpha chain (Sus scrofa) (UniProt P02550); experiment: Potency to that of potency of paclitaxel in Tubulin polymerization assay; format: functional
HCT-116 [2] = experiment: In vitro inhibitory activity against colon carcinoma HCT 116 cell line was determined.; format: functional, cell-based; settings: Homo sapiens
HCT-116 [3] = experiment: In vitro inhibitory activity against Paclitaxel resistant colon carcinoma HCT VM46 cell line was determined.; format: functional, cell-based; settings: Homo sapiens

Sequence of Tubulin alpha chain (Sus scrofa) (P02550 whole entry, looked up): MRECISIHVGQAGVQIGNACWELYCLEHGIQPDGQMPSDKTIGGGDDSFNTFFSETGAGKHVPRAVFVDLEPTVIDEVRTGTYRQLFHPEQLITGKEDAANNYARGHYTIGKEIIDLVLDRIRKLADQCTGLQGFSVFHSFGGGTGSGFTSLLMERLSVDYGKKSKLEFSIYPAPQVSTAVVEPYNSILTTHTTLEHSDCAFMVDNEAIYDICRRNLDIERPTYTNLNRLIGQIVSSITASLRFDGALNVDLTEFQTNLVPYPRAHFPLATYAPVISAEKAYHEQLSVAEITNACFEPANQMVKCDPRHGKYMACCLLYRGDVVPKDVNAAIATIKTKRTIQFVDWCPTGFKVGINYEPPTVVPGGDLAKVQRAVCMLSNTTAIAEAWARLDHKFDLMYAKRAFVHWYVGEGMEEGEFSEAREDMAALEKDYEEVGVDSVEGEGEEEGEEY

Row | IC50 (A2780) [nM] | Ratio [1] | IC50 (HCT-116 [2]) [nM] | IC50 (HCT-116 [3]) [nM] | SMILES
1 | 3.5 | 1 | 2.9 | > 118 | CC(=O)O[C@H]1C(=O)[C@@]2(C)C([C@H](OC(=O)c3ccccc3)C3(O)C[C@H](OC(=O)[C@H](O)[C@@H](NC(=O)c4ccccc4)c4ccccc4)C(C)=C1C3(C)C)[C@]1(OC(C)=O)COC1C[C@@H]2O (some centres not stated)
2 | 1.8 | 0.7 | 1.5 | 14 | COCO[C@H]1CC2OC[C@@]2(OC(C)=O)C2[C@H](OC(=O)c3ccccc3)C3(O)C[C@H](OC(=O)[C@H](O)[C@@H](NC(=O)c4ccccc4)c4ccccc4)C(C)=C(C3(C)C)[C@@]3(CO3)C(=O)[C@@]21C (some centres not stated)

Row | SMILES | IC50 (A2780) [nM] | Ratio [1] | IC50 (HCT-116 [2]) [nM] | IC50 (HCT-116 [3]) [nM]
3 | CC(=O)O[C@@]12COC1C[C@H](O)[C@@]1(C)C(=O)[C@@]3(CO3)C3=C(C)[C@@H](OC(=O)[C@H](O)[C@@H](NC(=O)c4ccccc4)c4ccccc4)CC(O)([C@@H](OC(=O)c4ccccc4)C21)C3(C)C (some centres not stated) | 2.5 | 0.5 | 2 | > 121
